Where two headings read alike, the source gives them in different places.
How the values were obtained:
NS3-NS4A protease = biological target: T1, NS3-NS4A protease (Hepatitis C virus genotype 1a, UniProt P27958); test: NS3-NS4A protease assay (NS3 inhibition assay, RETS1 substrate), Section B; type: biochemical; details: read-out: NS3-NS4A IC50
T1 construct: Recombinant E. coli or Baculovirus full-length NS3 was diluted to 3.33 μM with assay buffer; made in house; host or cells: E. coli or baculovirus (BV) system
T1 sequence (P27958 1027-1657): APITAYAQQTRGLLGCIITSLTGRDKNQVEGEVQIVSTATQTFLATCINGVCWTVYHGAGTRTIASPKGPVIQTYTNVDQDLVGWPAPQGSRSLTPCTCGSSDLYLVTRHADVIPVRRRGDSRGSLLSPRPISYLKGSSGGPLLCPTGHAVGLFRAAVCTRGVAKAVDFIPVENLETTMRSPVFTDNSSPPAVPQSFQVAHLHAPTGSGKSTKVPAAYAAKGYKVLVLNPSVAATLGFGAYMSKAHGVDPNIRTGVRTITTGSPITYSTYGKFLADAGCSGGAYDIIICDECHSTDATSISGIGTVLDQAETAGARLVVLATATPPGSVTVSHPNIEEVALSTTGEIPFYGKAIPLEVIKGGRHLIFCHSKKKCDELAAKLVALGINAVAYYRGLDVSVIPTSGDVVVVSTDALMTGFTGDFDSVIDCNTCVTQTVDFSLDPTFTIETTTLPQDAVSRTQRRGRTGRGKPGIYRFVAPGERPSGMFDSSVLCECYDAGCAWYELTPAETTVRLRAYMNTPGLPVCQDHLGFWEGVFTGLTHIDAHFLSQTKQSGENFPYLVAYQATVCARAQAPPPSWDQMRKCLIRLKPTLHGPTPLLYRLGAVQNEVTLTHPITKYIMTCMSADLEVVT
Procedure, shortened: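 Kinetic fluorescence read (335 nm excitation, 495 nm emission, 30 min) of RETS1 cleavage by NS3/NS4A-2 complex, 2 nM E. coli or 3 nM baculovirus NS3, after 10 min room-temperature compound pre-incubation. Four-parameter-fit IC50s converted to Ki by Cheng–Prusoff, Ki=IC50/(1+[S]/Km).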

[1] = system: HCV sub-genomic replicon, GS4.3; test: Quantitation by ELISA of NPTII in the HCV sub-genomic replicon, GS4.3, Section B; type: cell-based; details: Hepatitis C virus, read-out: Replicon EC50
Text: Quantitation by ELISA of the Selectable Marker Protein, Neomycin Phosphotransferase II (NPTII) in the HCV Sub-Genomic Replicon, GS4.3
The HCV sub-genomic replicon (1377/NS3-3′, accession No. AJ242652), stably maintained in HuH-7 hepatoma cells, was created by Lohmann et al. Science 285: 110-113 (1999). The replicon-containing cell culture, designated GS4.3, was obtained from Dr. Christoph Seeger of the Institute for Cancer Research, Fox Chase Cancer Center, Philadelphia, Pa.
GS4.3 cells were maintained at 37° C., 5% CO2, in DMEM (Gibco 11965-092) supplemented with L-glutamine 200 mM (100×) (Gibco25030-081), non-essential amino acids (NEAA)(Biowhittaker 13-114E), heat-inactivated (HI) Fetal Bovine Serum(FBS)(Hyclone SH3007.03) and 750 μg/ml geneticin (G418)(Gibco 10131-035). Cells were sub-divided 1:3 or 4 every 2-3 days.
24 hours prior to the assay, GS4.3 cells were collected, counted, and plated in 96-well plates (Costar 3585) at 7500 cells/well in 100 μl standard maintenance medium (above) and incubated in the conditions above. To initiate the assay, culture medium was removed, cells were washed once with PBS (Gibco 10010-023) and 90 μl Assay Medium (DMEM, L-glutamine, NEAA, 10% HI FBS, no G418) was added. Inhibitors were made as a 10× stock in Assay Medium, (3-fold dilutions from 10 μM to […] final concentration, final DMSO concentration 1%), 10 μl were added to duplicate wells, plates were rocked to mix, and incubated as above for 72 h.
An NPTII ELISA kit was obtained from AGDIA, Inc. (Compound direct ELISA test system for Neomycin Phosphotransferase II, PSP 73000/4800). Manufacturer's instructions were followed, with some modifications. 10×PEB-1 lysis buffer was made up to include 500 μM PMSF (Sigma P7626, 50 mM stock in isopropanol). After 72 h incubation, cells were washed once with PBS and 150 μl PEB-1 with PMSF was added per well. Plates were agitated vigorously for 15 minutes, room temperature, then frozen at −70° C. Plates were thawed, lysates were mixed thoroughly, and 100 μl were applied to an NPTII Elisa plate. A standard curve was made. Lysate from DMSO-treated control cells was pooled, serially diluted with PEB-1 with PMSF, and applied to duplicate wells of the ELISA plate, in a range of initial lysate amount of 150u1-2.5 ul. In addition, 100 μl buffer alone was applied in duplicate as a blank. Plates were sealed and gently agitated at room temperature for 2 h. Following capture incubation, the plates were washed 5×300 μl with PBS-T (0.5% Tween-20, PBS-T was supplied in the ELISA kit). For detection, a 1× dilution of enzyme conjugate diluent MRS-2 (5×) was made in PBS-T, into which 1:100 dilutions of enzyme conjugates A and B were added, as per instructions. Plates were resealed, and incubated with agitation, covered, room temperature, for 2 h. The washing was then repeated and 100 μl of room temperature TMB substrate was added. After approximately 30 minutes incubation (room temperature, agitation, covered), the reaction was stopped with 50 μl 3M sulfuric acid. Plates were read at 450 nm on a Molecular Devices Versamax plate reader.
Inhibitor effect was expressed as a percentage of DMSO-treated control signal, and inhibition curves were calculated using a 4-parameter equation: y=A+((B−A)/(1+((C/x)^D))), where C is half-maximal activity or EC50.

Structure (SMILES)	IC50 (NS3-NS4A protease) [nM]	EC50 ([1]; GS4.3 cells, 72 h incubation) [nM]	EC50 ([1]; 72 h) [nM]
O=C(N[C@H]1CCCCCCCC2C[C@@]2(C(=O)NS(=O)(=O)C2CC2)NC(=O)[C@@H]2C[C@@H](OC(=O)N3CCc4ccccc4C3)CN2C1=O)OC1CCCC1 (stereo in doubt) [AR00324375, (1S,4R,6S,14S,18R)-3,4-Dihydro-1H-isoquinoline-2-carboxylic acid 14-cyclopentyloxycarbonylamino-4-cyclopropanesulfonylaminocarbonyl-2,15-dioxo-3,16-diaza-tricyclo[14.3.0.0^4,6]nonadec-18-yl ester]	< 1000	< 1000	–
CC(C)(C)OC(=O)N[C@H]1CCCCCCCC2C[C@@]2(C(=O)NS(=O)(=O)C2CC2)NC(=O)[C@@H]2C[C@@H](OC(=O)N3Cc4ccccc4C3)CN2C1=O (stereo in doubt) [AR00333833, (1S,4R,6S,14S,18R)-1,3-Dihydro-isoindole-2-carboxylic acid 14-tert-butoxycarbonylamino-4-cyclopropanesulfonylaminocarbonyl-2,15-dioxo-3,16-diaza-tricyclo[14.3.0.0^4,6]nonadec-18-yl ester]	< 100	< 100	–
CC(C)(C)OC(=O)N[C@H]1CCCCC/C=C\[C@@H]2C[C@@]2(C(=O)O)NC(=O)[C@@H]2C[C@@H](OC(=O)N3CCc4ccccc4C3)CN2C1=O [AR00220042, (1S,4R,6S,14S,18R)-14-tert-Butoxycarbonylamino-18-(3,4-dihydro-1H-isoquinoline-2-carbonyloxy)-2,15-dioxo-3,16-diaza-tricyclo[14.3.0.0^4,6]nonadec-7-ene-4-carboxylic acid]	< 1000	< 10000	–
CC(C)(C)OC(=O)N[C@H]1CCCCC/C=C\[C@@H]2C[C@@]2(C(=O)NS(C)(=O)=O)NC(=O)[C@@H]2C[C@@H](OC(=O)N3CCc4ccccc4C3)CN2C1=O [AR00254906, (1S,4R,6S,14S,18R)-3,4-Dihydro-1H-isoquinoline-2-carboxylic acid 14-tert-butoxycarbonylamino-4-methanesulfonylaminocarbonyl-2,15-dioxo-3,16-diaza-tricyclo[14.3.0.0^4,6]nonadec-7-en-18-yl ester]	< 100	< 1000	–
CC(C)S(=O)(=O)NC(=O)[C@@]12C[C@H]1/C=C\CCCCC[C@H](NC(=O)OC(C)(C)C)C(=O)N1C[C@H](OC(=O)N3CCc4ccccc4C3)C[C@H]1C(=O)N2 [AR00261407, (1S,4R,6S,14S,18R)-3,4-Dihydro-1H-isoquinoline-2-carboxylic acid 14-tert-butoxycarbonylamino-2,15-dioxo-4-(propane-2-sulfonylaminocarbonyl)-3,16-diaza-tricyclo[14.3.0.0^4,6]nonadec-7-en-18-yl ester]	< 100	–	< 1000
CC(C)(C)OC(=O)N[C@H]1CCCCC/C=C\[C@@H]2C[C@@]2(C(=O)NS(=O)(=O)C2CC2)NC(=O)[C@@H]2C[C@@H](OC(=O)N3CCc4ccccc4C3)CN2C1=O [AR00261408, (1S,4R,6S,14S,18R)-3,4-Dihydro-1H-isoquinoline-2-carboxylic acid 14-tert-butoxycarbonylamino-4-cyclopropanesulfonylaminocarbonyl-2,15-dioxo-3,16-diaza-tricyclo[14.3.0.0^4,6]nonadec-7-en-18-yl ester]	< 100	< 100	–
CCCCS(=O)(=O)NC(=O)[C@@]12C[C@H]1/C=C\CCCCC[C@H](NC(=O)OC(C)(C)C)C(=O)N1C[C@H](OC(=O)N3CCc4ccccc4C3)C[C@H]1C(=O)N2 [AR00261409, (1S,4R,6S,14S,18R)-3,4-Dihydro-1H-isoquinoline-2-carboxylic acid 4-(butane-1-sulfonylaminocarbonyl)-14-tert-butoxycarbonylamino-2,15-dioxo-3,16-diaza-tricyclo[14.3.0.0^4,6]nonadec-7-en-18-yl ester]	< 100	–	< 10000
O=C(N[C@H]1CCCCC/C=C\[C@@H]2C[C@@]2(C(=O)NS(=O)(=O)C2CC2)NC(=O)[C@@H]2C[C@@H](OC(=O)N3CCc4ccccc4C3)CN2C1=O)OC1CCCC1 [AR00282131, (1S,4R,6S,14S,18R)-3,4-Dihydro-1H-isoquinoline-2-carboxylic acid 14-cyclopentyloxycarbonylamino-4-cyclopropanesulfonylaminocarbonyl-2,15-dioxo-3,16-diaza-tricyclo[14.3.0.0^4,6]nonadec-7-en-18-yl ester]	< 100	< 100	–
CC(C)(C)OC(=O)N[C@H]1CCCCC/C=C\[C@@H]2C[C@@]2(C(=O)NS(=O)(=O)C2CC2)NC(=O)[C@@H]2C[C@@H](NC(=O)N3CCc4ccccc4C3)CN2C1=O [AR00287266, (is, 4R, 6S, 14S, 18R)-{4-Cyclopropanesulfonylaminocarbonyl-18-[(3,4-dihydro-1H-isoquinoline-2-carbonyl)-amino]-2,15-dioxo-3,16-diaza-tricyclo[14.3.0.0^4,6]nonadec-7-en-14-yl}-carbamic acid tert-butyl ester]	< 100	< 1000	–
CC(C)(C)OC(=O)N[C@H]1CCCCC/C=C\[C@@H]2C[C@@]2(C(=O)O)NC(=O)[C@@H]2C[C@@H](OC(=O)N3Cc4ccccc4C3)CN2C1=O [AR00291871, (1S,4R,6S,14S,18R)-14-tert-Butoxycarbonylamino-18-(1,3-dihydro-isoindole-2-carbonyloxy)-2,15-dioxo-3,16-diaza-tricyclo[14.3.0.0^4,6]nonadec-7-ene-4-carboxylic acid]	< 100	< 1000	–
CC(C)(C)OC(=O)N[C@H]1CCCCC/C=C\[C@@H]2C[C@@]2(C(=O)O)NC(=O)[C@@H]2C[C@@H](OC(=O)N3CCc4ccccc43)CN2C1=O [AR00291875, (1S,4R,6S,14S,18R)-14-tert-Butoxycarbonylamino-18-(2,3-dihydro-indole-1-carbonyloxy)-2,15-dioxo-3,16-diaza-tricyclo[14.3.0.0^4,6]nonadec-7-ene-4-carboxylic acid]	< 1000	< 10000	–
CC(C)(C)NC(=O)N[C@H]1CCCCC/C=C\[C@@H]2C[C@@]2(C(=O)O)NC(=O)[C@@H]2C[C@@H](OC(=O)N3CCc4ccccc4C3)CN2C1=O [AR00294377, (1S,4R,6S,14S,18R)-14-(3-tert-Butyl-ureido)-18-(3,4-dihydro-1H-isoquinoline-2-carbonyloxy)-2,15-dioxo-3,16-diaza-tricyclo[14.3.0.0^4,6]nonadec-7-ene-4-carboxylic acid]	< 1000	< 10000	–
O=C(NC1CCCC1)N[C@H]1CCCCC/C=C\[C@@H]2C[C@@]2(C(=O)O)NC(=O)[C@@H]2C[C@@H](OC(=O)N3CCc4ccccc4C3)CN2C1=O [AR00294378, (1S,4R,6S,14S,18R)-14-(3-Cyclopentyl-ureido)-18-(3,4-dihydro-1H-isoquinoline-2-carbonyloxy)-2,15-dioxo-3,16-diaza-tricyclo[14.3.0.0^4,6]nonadec-7-ene-4-carboxylic acid]	< 1000	< 10000	–
CC(C)(C)OC(=O)N[C@H]1CCCCC/C=C\[C@@H]2C[C@@]2(C(=O)NS(=O)(=O)C2CC2)NC(=O)[C@@H]2C[C@@H](OC(=O)N3Cc4ccccc4C3)CN2C1=O [AR00294381, (1S,4R,6S,14S,18R)-1,3-Dihydro-isoindole-2-carboxylic acid 14-tert-butoxycarbonylamino-4-cyclopropanesulfonylaminocarbonyl-2,15-dioxo-3,16-diaza-tricyclo[14.3.0.0^4,6]nonadec-7-en-18-yl ester]	< 100	< 100	–
